Laboratory results from the NIST ThermoML archive (doi:10.1016/j.jct.2015.01.004).
Several values for one entry are separate records, joined by “and”; a condition that tells them apart may be missing. Equal values may be shown once.

Assay: molar heat capacity at constant pressure; xn = mol fraction of the nth substance listed
Details: 100 kPa

[Si] [silicon] + [Li]
Details | molar heat capacity at constant pressure
453.6 K, Crystal of intercomponent compound 1, Small sample (50 mg) DSC, x2 = 0.81 | 25.67 J/K/mol
460 K, Crystal of intercomponent compound 1, relaxation calorimetry + DSC, x2 = 0.81 | 25.6 J/K/mol
460 K, Crystal of intercomponent compound 2, relaxation calorimetry + DSC, x2 = 0.804 | 26.23 J/K/mol
463.31 K, Crystal of intercomponent compound 2, Small sample (50 mg) DSC, x2 = 0.804 | 26.1 J/K/mol and 26.34 J/K/mol
463.5 K, Crystal of intercomponent compound 1, Small sample (50 mg) DSC, x2 = 0.81 | 25.45 J/K/mol
463.51 K, Crystal of intercomponent compound 1, Small sample (50 mg) DSC, x2 = 0.81 | 25.78 J/K/mol
473.22 K, Crystal of intercomponent compound 2, Small sample (50 mg) DSC, x2 = 0.804 | 26.29 J/K/mol and 26.62 J/K/mol
473.42 K, Crystal of intercomponent compound 1, Small sample (50 mg) DSC, x2 = 0.81 | 25.23 J/K/mol
473.43 K, Crystal of intercomponent compound 1, Small sample (50 mg) DSC, x2 = 0.81 | 26 J/K/mol
480 K, Crystal of intercomponent compound 1, relaxation calorimetry + DSC, x2 = 0.81 | 25.91 J/K/mol
480 K, Crystal of intercomponent compound 2, relaxation calorimetry + DSC, x2 = 0.804 | 26.66 J/K/mol
483.13 K, Crystal of intercomponent compound 2, Small sample (50 mg) DSC, x2 = 0.804 | 26.48 J/K/mol and 26.77 J/K/mol
483.33 K, Crystal of intercomponent compound 1, Small sample (50 mg) DSC, x2 = 0.81 | 25.45 J/K/mol
483.34 K, Crystal of intercomponent compound 1, Small sample (50 mg) DSC, x2 = 0.81 | 26.11 J/K/mol
493.04 K, Crystal of intercomponent compound 2, Small sample (50 mg) DSC, x2 = 0.804 | 26.73 J/K/mol and 26.89 J/K/mol
493.24 K, Crystal of intercomponent compound 1, Small sample (50 mg) DSC, x2 = 0.81 | 25.56 J/K/mol
493.26 K, Crystal of intercomponent compound 1, Small sample (50 mg) DSC, x2 = 0.81 | 26.32 J/K/mol
500 K, Crystal of intercomponent compound 1, relaxation calorimetry + DSC, x2 = 0.81 | 26.22 J/K/mol
500 K, Crystal of intercomponent compound 2, relaxation calorimetry + DSC, x2 = 0.804 | 27.09 J/K/mol
502.95 K, Crystal of intercomponent compound 2, Small sample (50 mg) DSC, x2 = 0.804 | 26.84 J/K/mol and 27.04 J/K/mol
503.15 K, Crystal of intercomponent compound 1, Small sample (50 mg) DSC, x2 = 0.81 | 25.78 J/K/mol
503.17 K, Crystal of intercomponent compound 1, Small sample (50 mg) DSC, x2 = 0.81 | 26.43 J/K/mol
512.86 K, Crystal of intercomponent compound 2, Small sample (50 mg) DSC, x2 = 0.804 | 27 J/K/mol and 27.24 J/K/mol
513.06 K, Crystal of intercomponent compound 1, Small sample (50 mg) DSC, x2 = 0.81 | 25.89 J/K/mol
513.08 K, Crystal of intercomponent compound 1, Small sample (50 mg) DSC, x2 = 0.81 | 26.54 J/K/mol
520 K, Crystal of intercomponent compound 1, relaxation calorimetry + DSC, x2 = 0.81 | 26.54 J/K/mol
520 K, Crystal of intercomponent compound 2, relaxation calorimetry + DSC, x2 = 0.804 | 27.52 J/K/mol
522.77 K, Crystal of intercomponent compound 2, Small sample (50 mg) DSC, x2 = 0.804 | 27.23 J/K/mol and 27.49 J/K/mol
522.97 K, Crystal of intercomponent compound 1, Small sample (50 mg) DSC, x2 = 0.81 | 26.11 J/K/mol
522.99 K, Crystal of intercomponent compound 1, Small sample (50 mg) DSC, x2 = 0.81 | 26.76 J/K/mol
532.68 K, Crystal of intercomponent compound 2, Small sample (50 mg) DSC, x2 = 0.804 | 27.46 J/K/mol and 27.67 J/K/mol
532.88 K, Crystal of intercomponent compound 1, Small sample (50 mg) DSC, x2 = 0.81 | 26.21 J/K/mol
532.9 K, Crystal of intercomponent compound 1, Small sample (50 mg) DSC, x2 = 0.81 | 26.98 J/K/mol
540 K, Crystal of intercomponent compound 1, relaxation calorimetry + DSC, x2 = 0.81 | 26.88 J/K/mol
540 K, Crystal of intercomponent compound 2, relaxation calorimetry + DSC, x2 = 0.804 | 27.95 J/K/mol
542.58 K, Crystal of intercomponent compound 2, Small sample (50 mg) DSC, x2 = 0.804 | 27.67 J/K/mol and 27.88 J/K/mol
542.79 K, Crystal of intercomponent compound 1, Small sample (50 mg) DSC, x2 = 0.81 | 26.54 J/K/mol
542.81 K, Crystal of intercomponent compound 1, Small sample (50 mg) DSC, x2 = 0.81 | 27.31 J/K/mol
552.5 K, Crystal of intercomponent compound 2, Small sample (50 mg) DSC, x2 = 0.804 | 27.8 J/K/mol and 28 J/K/mol
552.7 K, Crystal of intercomponent compound 1, Small sample (50 mg) DSC, x2 = 0.81 | 26.76 J/K/mol
552.72 K, Crystal of intercomponent compound 1, Small sample (50 mg) DSC, x2 = 0.81 | 27.53 J/K/mol
560 K, Crystal of intercomponent compound 1, relaxation calorimetry + DSC, x2 = 0.81 | 27.23 J/K/mol
560 K, Crystal of intercomponent compound 2, relaxation calorimetry + DSC, x2 = 0.804 | 28.38 J/K/mol
562.41 K, Crystal of intercomponent compound 2, Small sample (50 mg) DSC, x2 = 0.804 | 27.97 J/K/mol and 28.24 J/K/mol
562.61 K, Crystal of intercomponent compound 1, Small sample (50 mg) DSC, x2 = 0.81 | 27.09 J/K/mol
562.63 K, Crystal of intercomponent compound 1, Small sample (50 mg) DSC, x2 = 0.81 | 27.75 J/K/mol
572.33 K, Crystal of intercomponent compound 2, Small sample (50 mg) DSC, x2 = 0.804 | 28.21 J/K/mol and 28.37 J/K/mol
572.52 K, Crystal of intercomponent compound 1, Small sample (50 mg) DSC, x2 = 0.81 | 27.31 J/K/mol
572.54 K, Crystal of intercomponent compound 1, Small sample (50 mg) DSC, x2 = 0.81 | 27.97 J/K/mol
580 K, Crystal of intercomponent compound 1, relaxation calorimetry + DSC, x2 = 0.81 | 27.6 J/K/mol
580 K, Crystal of intercomponent compound 2, relaxation calorimetry + DSC, x2 = 0.804 | 28.81 J/K/mol
582.24 K, Crystal of intercomponent compound 2, Small sample (50 mg) DSC, x2 = 0.804 | 28.41 J/K/mol and 28.65 J/K/mol
582.43 K, Crystal of intercomponent compound 1, Small sample (50 mg) DSC, x2 = 0.81 | 27.53 J/K/mol
582.45 K, Crystal of intercomponent compound 1, Small sample (50 mg) DSC, x2 = 0.81 | 28.19 J/K/mol
592.15 K, Crystal of intercomponent compound 2, Small sample (50 mg) DSC, x2 = 0.804 | 28.65 J/K/mol and 28.85 J/K/mol
592.34 K, Crystal of intercomponent compound 1, Small sample (50 mg) DSC, x2 = 0.81 | 27.86 J/K/mol
592.36 K, Crystal of intercomponent compound 1, Small sample (50 mg) DSC, x2 = 0.81 | 28.41 J/K/mol
600 K, Crystal of intercomponent compound 1, relaxation calorimetry + DSC, x2 = 0.81 | 28 J/K/mol
600 K, Crystal of intercomponent compound 2, relaxation calorimetry + DSC, x2 = 0.804 | 29.25 J/K/mol
602.06 K, Crystal of intercomponent compound 2, Small sample (50 mg) DSC, x2 = 0.804 | 28.86 J/K/mol and 29.05 J/K/mol
602.26 K, Crystal of intercomponent compound 1, Small sample (50 mg) DSC, x2 = 0.81 | 28.19 J/K/mol
602.27 K, Crystal of intercomponent compound 1, Small sample (50 mg) DSC, x2 = 0.81 | 28.63 J/K/mol
611.97 K, Crystal of intercomponent compound 2, Small sample (50 mg) DSC, x2 = 0.804 | 29.02 J/K/mol and 29.19 J/K/mol
612.17 K, Crystal of intercomponent compound 1, Small sample (50 mg) DSC, x2 = 0.81 | 28.3 J/K/mol
612.18 K, Crystal of intercomponent compound 1, Small sample (50 mg) DSC, x2 = 0.81 | 28.74 J/K/mol
620 K, Crystal of intercomponent compound 1, relaxation calorimetry + DSC, x2 = 0.81 | 28.43 J/K/mol
620 K, Crystal of intercomponent compound 2, relaxation calorimetry + DSC, x2 = 0.804 | 29.68 J/K/mol
621.88 K, Crystal of intercomponent compound 2, Small sample (50 mg) DSC, x2 = 0.804 | 29.19 J/K/mol and 29.48 J/K/mol
622.08 K, Crystal of intercomponent compound 1, Small sample (50 mg) DSC, x2 = 0.81 | 28.41 J/K/mol
622.09 K, Crystal of intercomponent compound 1, Small sample (50 mg) DSC, x2 = 0.81 | 28.96 J/K/mol
631.8 K, Crystal of intercomponent compound 2, Small sample (50 mg) DSC, x2 = 0.804 | 29.46 J/K/mol and 29.65 J/K/mol
631.99 K, Crystal of intercomponent compound 1, Small sample (50 mg) DSC, x2 = 0.81 | 28.74 J/K/mol
632.01 K, Crystal of intercomponent compound 1, Small sample (50 mg) DSC, x2 = 0.81 | 29.07 J/K/mol
640 K, Crystal of intercomponent compound 1, relaxation calorimetry + DSC, x2 = 0.81 | 28.9 J/K/mol
640 K, Crystal of intercomponent compound 2, relaxation calorimetry + DSC, x2 = 0.804 | 30.11 J/K/mol
641.71 K, Crystal of intercomponent compound 2, Small sample (50 mg) DSC, x2 = 0.804 | 29.67 J/K/mol and 29.92 J/K/mol
641.89 K, Crystal of intercomponent compound 1, Small sample (50 mg) DSC, x2 = 0.81 | 28.96 J/K/mol
641.92 K, Crystal of intercomponent compound 1, Small sample (50 mg) DSC, x2 = 0.81 | 29.29 J/K/mol
651.63 K, Crystal of intercomponent compound 2, Small sample (50 mg) DSC, x2 = 0.804 | 29.86 J/K/mol and 30.21 J/K/mol
651.81 K, Crystal of intercomponent compound 1, Small sample (50 mg) DSC, x2 = 0.81 | 29.07 J/K/mol
651.84 K, Crystal of intercomponent compound 1, Small sample (50 mg) DSC, x2 = 0.81 | 29.51 J/K/mol
